Values of other authors in patent US20210324031A1, “COMPOUNDS, COMPOSITIONS, METHODS, AND USES FOR TREATING LEPTIN RESISTANCE, OBESITY, DIABETES MELLITUS AND METABOLIC SYNDROME” (priority 2019, published 2021).
Where a SMILES comes first, the peptide text is derived from it. [ ]: non-standard residue; d: D form. The star is where a group is joined. Dolaproine = CO[C@@H]([C@@H]1CCCN1)[C@@H](C)C(=O)O; Dil = CC[C@H](C)[C@H](NC)[C@@H](CC(=O)O)OC; X1 = C[C@@H](N*)[C@@H](O)c1ccccc1; NMeV = CN[C@H](C(=O)O)C(C)C

Legend:
[1] = Human cancer clinical trials
[2] = test system: CD30+ ALCL type tumor Karpas 299

| Structure (SMILES) | toxicity in clinical trials [1] | control of tumor growth ([2]; ADC format, conjugated to an anti-CD30 antibody, drug to antibody ratio 2:1, MMAE dose 10 times lower than the free drug) | halt of tumor growth ([2]; free drug at maximal tolerated dose 0.3 mg/kg, compared with saline) | maximal tolerated dose ([2]; free drug, mice with human xenografted tumors) [mg/kg] |
| --- | --- | --- | --- | --- |
| NS(=O)(=O)OC[C@H]1C[C@H](n2ccc3c(N[C@@H]4CCc5ccccc54)ncnc32)C[C@H]1O (stereo in doubt) [MLN4924, ((1R,2R,4S)-4-(4-(((R)-2,3-dihydro-1H-inden-1-yl)amino)-7H-pyrrolo[2,3-d]pyrimidin-7-yl)-2-hydroxycyclopentyl)methyl sulfamate] | toxic | – | – | – |
| CC[C@H](C)[C@@H]([C@@H](CC(=O)N1CCC[C@H]1[C@H](OC)[C@@H](C)C(=O)N[C@H](C)[C@@H](O)c1ccccc1)OC)N(C)C(=O)[C@@H](NC(=O)[C@@H](NC)C(C)C)C(C)C [MMAE, monomethyl auristatin E] (H-[NMeV]V[Dil][Dolaproine]-X1) | – | completely control tumor growth | only slightly better than saline | 0.3 |
